Legend:
CCRF-CEM (leukemia) = assay: NCI 60-cell one-dose antiproliferative screen; type: cell-based, human; conditions: one dose 10 μM
RPMI-8226 (leukemia) = assay: NCI 60-cell one-dose antiproliferative screen; type: cell-based, human; conditions: one dose 10 μM
[1] = system: A549/ATCC (NSC lung cancer); assay: NCI 60-cell one-dose antiproliferative screen; type: cell-based, human; conditions: one dose 10 μM
EKVX (NSC lung cancer) = assay: NCI 60-cell one-dose antiproliferative screen; type: cell-based, human; conditions: one dose 10 μM
HOP-62 (NSC lung cancer) = assay: NCI 60-cell one-dose antiproliferative screen; type: cell-based, human; conditions: one dose 10 μM
HOP-92 (NSC lung cancer) = assay: NCI 60-cell one-dose antiproliferative screen; type: cell-based, human; conditions: one dose 10 μM
[2] = system: NCI-H226 (NSC lung cancer); assay: NCI 60-cell one-dose antiproliferative screen; type: cell-based, human; conditions: one dose 10 μM
[3] = system: NCI-H23 (NSC lung cancer); assay: NCI 60-cell one-dose antiproliferative screen; type: cell-based, human; conditions: one dose 10 μM
[4] = system: NCI-H322M (NSC lung cancer); assay: NCI 60-cell one-dose antiproliferative screen; type: cell-based, human; conditions: one dose 10 μM
[5] = system: NCI-H460 (NSC lung cancer); assay: NCI 60-cell one-dose antiproliferative screen; type: cell-based, human; conditions: one dose 10 μM
[6] = system: NCI-H522 (NSC lung cancer); assay: NCI 60-cell one-dose antiproliferative screen; type: cell-based, human; conditions: one dose 10 μM
COLO-205 (colon cancer) = assay: NCI 60-cell one-dose antiproliferative screen; type: cell-based, human; conditions: one dose 10 μM
HCC-2998 (colon cancer) = assay: NCI 60-cell one-dose antiproliferative screen; type: cell-based, human; conditions: one dose 10 μM
HCT-116 (colon cancer) = assay: NCI 60-cell one-dose antiproliferative screen; type: cell-based, human; conditions: one dose 10 μM
HCT-15 (colon cancer) = assay: NCI 60-cell one-dose antiproliferative screen; type: cell-based, human; conditions: one dose 10 μM
HT29 (colon cancer) = assay: NCI 60-cell one-dose antiproliferative screen; type: cell-based, human; conditions: one dose 10 μM
KM12 (colon cancer) = assay: NCI 60-cell one-dose antiproliferative screen; type: cell-based, human; conditions: one dose 10 μM
SW-620 (colon cancer) = assay: NCI 60-cell one-dose antiproliferative screen; type: cell-based, human; conditions: one dose 10 μM
SF-268 (CNS cancer) = assay: NCI 60-cell one-dose antiproliferative screen; type: cell-based, human; conditions: one dose 10 μM
SF-295 (CNS cancer) = assay: NCI 60-cell one-dose antiproliferative screen; type: cell-based, human; conditions: one dose 10 μM
SF-539 (CNS cancer) = assay: NCI 60-cell one-dose antiproliferative screen; type: cell-based, human; conditions: one dose 10 μM
SNB-19 (CNS cancer) = assay: NCI 60-cell one-dose antiproliferative screen; type: cell-based, human; conditions: one dose 10 μM
SNB-75 (CNS cancer) = assay: NCI 60-cell one-dose antiproliferative screen; type: cell-based, human; conditions: one dose 10 μM
U251 (CNS cancer) = assay: NCI 60-cell one-dose antiproliferative screen; type: cell-based, human; conditions: one dose 10 μM
LOX IMIV (melanoma) = assay: NCI 60-cell one-dose antiproliferative screen; type: cell-based, human; conditions: one dose 10 μM
MALME-3M (melanoma) = assay: NCI 60-cell one-dose antiproliferative screen; type: cell-based, human; conditions: one dose 10 μM
M14 (melanoma) = assay: NCI 60-cell one-dose antiproliferative screen; type: cell-based, human; conditions: one dose 10 μM
MDA-MB-435 (melanoma) = assay: NCI 60-cell one-dose antiproliferative screen; type: cell-based, human; conditions: one dose 10 μM
SK-MEL-2 (melanoma) = assay: NCI 60-cell one-dose antiproliferative screen; type: cell-based, human; conditions: one dose 10 μM
SK-MEL-28 (melanoma) = assay: NCI 60-cell one-dose antiproliferative screen; type: cell-based, human; conditions: one dose 10 μM
UACC-257 (melanoma) = assay: NCI 60-cell one-dose antiproliferative screen; type: cell-based, human; conditions: one dose 10 μM
UACC-62 (melanoma) = assay: NCI 60-cell one-dose antiproliferative screen; type: cell-based, human; conditions: one dose 10 μM
IGROV1 (ovarian cancer) = assay: NCI 60-cell one-dose antiproliferative screen; type: cell-based, human; conditions: one dose 10 μM
OVCAR-3 (ovarian cancer) = assay: NCI 60-cell one-dose antiproliferative screen; type: cell-based, human; conditions: one dose 10 μM
OVCAR-4 (ovarian cancer) = assay: NCI 60-cell one-dose antiproliferative screen; type: cell-based, human; conditions: one dose 10 μM
OVCAR-5 (ovarian cancer) = assay: NCI 60-cell one-dose antiproliferative screen; type: cell-based, human; conditions: one dose 10 μM
OVCAR-8 (ovarian cancer) = assay: NCI 60-cell one-dose antiproliferative screen; type: cell-based, human; conditions: one dose 10 μM
[7] = system: NCI/ADR-RES (ovarian cancer); assay: NCI 60-cell one-dose antiproliferative screen; type: cell-based, human; conditions: one dose 10 μM
SK-OV-3 (ovarian cancer) = assay: NCI 60-cell one-dose antiproliferative screen; type: cell-based, human; conditions: one dose 10 μM
786-0 (renal cancer) = assay: NCI 60-cell one-dose antiproliferative screen; type: cell-based, human; conditions: one dose 10 μM
A498 (renal cancer) = assay: NCI 60-cell one-dose antiproliferative screen; type: cell-based, human; conditions: one dose 10 μM
ACHN (renal cancer) = assay: NCI 60-cell one-dose antiproliferative screen; type: cell-based, human; conditions: one dose 10 μM
CAKI-1 (renal cancer) = assay: NCI 60-cell one-dose antiproliferative screen; type: cell-based, human; conditions: one dose 10 μM
RXF 393 (renal cancer) = assay: NCI 60-cell one-dose antiproliferative screen; type: cell-based, human; conditions: one dose 10 μM
SN12C (renal cancer) = assay: NCI 60-cell one-dose antiproliferative screen; type: cell-based, human; conditions: one dose 10 μM
TK-10 (renal cancer) = assay: NCI 60-cell one-dose antiproliferative screen; type: cell-based, human; conditions: one dose 10 μM
UO-31 (renal cancer) = assay: NCI 60-cell one-dose antiproliferative screen; type: cell-based, human; conditions: one dose 10 μM
PC-3 (prostate cancer) = assay: NCI 60-cell one-dose antiproliferative screen; type: cell-based, human; conditions: one dose 10 μM
DU-145 (prostate cancer) = assay: NCI 60-cell one-dose antiproliferative screen; type: cell-based, human; conditions: one dose 10 μM
MCF7 (breast cancer) = assay: NCI 60-cell one-dose antiproliferative screen; type: cell-based, human; conditions: one dose 10 μM
[8] = system: MDA-MB-231/ATCC (breast cancer); assay: NCI 60-cell one-dose antiproliferative screen; type: cell-based, human; conditions: one dose 10 μM
HS 578T (breast cancer) = assay: NCI 60-cell one-dose antiproliferative screen; type: cell-based, human; conditions: one dose 10 μM
T-47D (breast cancer) = assay: NCI 60-cell one-dose antiproliferative screen; type: cell-based, human; conditions: one dose 10 μM
[9] = system: MDA-MB-468 (breast cancer); assay: NCI 60-cell one-dose antiproliferative screen; type: cell-based, human; conditions: one dose 10 μM
[10] = system: 60 human tumor cell lines; assay: NCI 60-cell one-dose antiproliferative screen, whole panel; type: cell-based; conditions: Homo sapiens, 60 cell, read-out: Mean inhibition (mean GI%)

With `O=[N+]([O-])c1ccc(C=NNc2ccc3nnc(-c4ccccc4)n3n2)cc1` [Compound 4b, 6-(2-(4-Nitrobenzylidene)hydrazinyl)-3-phenyl-[1,2,4]triazolo[4,3-b]pyridazine] the GI% (CCRF-CEM (leukemia)) was “— (— GI% is below 15%)”, the GI% (RPMI-8226 (leukemia)) was “— (— GI% is below 15%)” and the GI% [1] was “— (— GI% is below 15%)”. For the same compound, the GI% (EKVX (NSC lung cancer)) was “— (— GI% is below 15%)”, the GI% (HOP-62 (NSC lung cancer)) was “— (— GI% is below 15%)” and the GI% (HOP-92 (NSC lung cancer)) was “— (— GI% is below 15%)”. For the same compound, the GI% [2] was “— (— GI% is below 15%)”, the GI% [3] was “— (— GI% is below 15%)” and the GI% [4] was “— (— GI% is below 15%)”. The GI% [5] was “— (— GI% is below 15%)”, the GI% [6] was “— (— GI% is below 15%)” and the GI% (COLO-205 (colon cancer)) was “— (— GI% is below 15%)”. For the same compound, the GI% (HCC-2998 (colon cancer)) was “— (— GI% is below 15%)”, the GI% (HCT-116 (colon cancer)) was “— (— GI% is below 15%)” and the GI% (HCT-15 (colon cancer)) was “— (— GI% is below 15%)”. The GI% (HT29 (colon cancer)) was “— (— GI% is below 15%)”, the GI% (KM12 (colon cancer)) was “— (— GI% is below 15%)” and the GI% (SW-620 (colon cancer)) was “— (— GI% is below 15%)”. The GI% (SF-268 (CNS cancer)) was “— (— GI% is below 15%)”, the GI% (SF-295 (CNS cancer)) was “— (— GI% is below 15%)” and the GI% (SF-539 (CNS cancer)) was “— (— GI% is below 15%)”. For the same compound, the GI% (SNB-19 (CNS cancer)) was “— (— GI% is below 15%)”, the GI% (SNB-75 (CNS cancer)) was “— (— GI% is below 15%)” and the GI% (U251 (CNS cancer)) was “— (— GI% is below 15%)”. The GI% (LOX IMIV (melanoma)) was “— (— GI% is below 15%)”, the GI% (MALME-3M (melanoma)) was “— (— GI% is below 15%)” and the GI% (M14 (melanoma)) was “— (— GI% is below 15%)”. For the same compound, the GI% (MDA-MB-435 (melanoma)) was “— (— GI% is below 15%)”, the GI% (SK-MEL-2 (melanoma)) was “— (— GI% is below 15%)” and the GI% (SK-MEL-28 (melanoma)) was “— (— GI% is below 15%)”. The GI% (UACC-257 (melanoma)) was “— (— GI% is below 15%)”, the GI% (UACC-62 (melanoma)) was “— (— GI% is below 15%)” and the GI% (IGROV1 (ovarian cancer)) was “— (— GI% is below 15%)”. The GI% (OVCAR-3 (ovarian cancer)) was “— (— GI% is below 15%)”, the GI% (OVCAR-4 (ovarian cancer)) was “— (— GI% is below 15%)” and the GI% (OVCAR-5 (ovarian cancer)) was “— (— GI% is below 15%)”. The GI% (OVCAR-8 (ovarian cancer)) was “— (— GI% is below 15%)”, the GI% [7] was “— (— GI% is below 15%)” and the GI% (SK-OV-3 (ovarian cancer)) was “— (— GI% is below 15%)”. The GI% (786-0 (renal cancer)) was “— (— GI% is below 15%)”, the GI% (A498 (renal cancer)) was “— (— GI% is below 15%)” and the GI% (ACHN (renal cancer)) was “— (— GI% is below 15%)”. For the same compound, the GI% (CAKI-1 (renal cancer)) was “— (— GI% is below 15%)”, the GI% (RXF 393 (renal cancer)) was “— (— GI% is below 15%)” and the GI% (SN12C (renal cancer)) was “— (— GI% is below 15%)”. The GI% (TK-10 (renal cancer)) was “— (— GI% is below 15%)”, the GI% (UO-31 (renal cancer)) was “— (— GI% is below 15%)” and the GI% (PC-3 (prostate cancer)) was “— (— GI% is below 15%)”. For the same compound, the GI% (DU-145 (prostate cancer)) was “— (— GI% is below 15%)”, the GI% (MCF7 (breast cancer)) was “— (— GI% is below 15%)” and the GI% [8] was “— (— GI% is below 15%)”. For the same compound, the GI% (HS 578T (breast cancer)) was “— (— GI% is below 15%)”, the GI% (T-47D (breast cancer)) was “— (— GI% is below 15%)” and the GI% [9] was “— (— GI% is below 15%)”. The inhibition at 10 µM [10] was < 0%.
